Results as given in article PMC5333395, “Assessing histone demethylase inhibitors in cells: lessons learned” (Epigenetics & Chromatin, 2017).
Where two headings read alike, the source gives them in different places. Values belong to the molecule of their own block, whether it stands above or below them.

Tests used:
HeLa cells [1] = experiment: Hoechst 33342/Yo-Pro 3/Annexin triple staining, live cell death pattern analysis; type: cell-based
Description: Cells exposed to the inhibitors for 24 h were stained with Hoechst 33342 (1 µM), Yo-Pro 3 (1 µM) and Annexin V (0.3 μL per well) for 1 h. Cellular fluorescence was measured using the IN Cell 6000 (GE) using the following set-up parameters: bright-field transmitted light at 50% for 15 ms; Hoechst 33342 was excited by 35-ms exposure(Ex 360–400 nm/Em 410–480 nm), Yo-Pro 3 by 35-ms exposure(Ex 560–580 nm/Em 650–760 nm) and Annexin V (Alexa 488) by 45-ms exposure(Ex 460–490 nm/Em 500–550 nm). All the generated data were analysed using the IN Cell Analyser software, and three categories were distinguished: healthy cells, apoptosis and necrosis—calculated as percentage of each class for every concentration used.

HeLa cells [2] = experiment: Cell number in the high-content screen (DAPI staining) as measure of toxicity; settings: concentrations used in the IF assays
Description: (§2) Immunofluorescence images of 20 fields (if not indicated otherwise) were captured through a 20× objective on a PerkinElmer Operetta or the GE IN Cell 6000 using the appropriate filters and light sources for exciting DAPI, Alexafluor 488, and Alexafluor 568 or Alexafluor 647. […] From the DAPI channel, a binary mask was created to exclude individual nuclei smaller than 100 µm^2 and those overlapping the edge of the field.

KDM4C = biological target: T1, KDM4C (Homo sapiens, UniProt Q9H3R0); experiment: AlphaScreen in vitro demethylase assay; type: biochemical; settings: in vitro KDM assay, Table S3; * likely false positive due to colour quenching; read-out: KDM4C IC50
T1 sequence (Q9H3R0 1-1056): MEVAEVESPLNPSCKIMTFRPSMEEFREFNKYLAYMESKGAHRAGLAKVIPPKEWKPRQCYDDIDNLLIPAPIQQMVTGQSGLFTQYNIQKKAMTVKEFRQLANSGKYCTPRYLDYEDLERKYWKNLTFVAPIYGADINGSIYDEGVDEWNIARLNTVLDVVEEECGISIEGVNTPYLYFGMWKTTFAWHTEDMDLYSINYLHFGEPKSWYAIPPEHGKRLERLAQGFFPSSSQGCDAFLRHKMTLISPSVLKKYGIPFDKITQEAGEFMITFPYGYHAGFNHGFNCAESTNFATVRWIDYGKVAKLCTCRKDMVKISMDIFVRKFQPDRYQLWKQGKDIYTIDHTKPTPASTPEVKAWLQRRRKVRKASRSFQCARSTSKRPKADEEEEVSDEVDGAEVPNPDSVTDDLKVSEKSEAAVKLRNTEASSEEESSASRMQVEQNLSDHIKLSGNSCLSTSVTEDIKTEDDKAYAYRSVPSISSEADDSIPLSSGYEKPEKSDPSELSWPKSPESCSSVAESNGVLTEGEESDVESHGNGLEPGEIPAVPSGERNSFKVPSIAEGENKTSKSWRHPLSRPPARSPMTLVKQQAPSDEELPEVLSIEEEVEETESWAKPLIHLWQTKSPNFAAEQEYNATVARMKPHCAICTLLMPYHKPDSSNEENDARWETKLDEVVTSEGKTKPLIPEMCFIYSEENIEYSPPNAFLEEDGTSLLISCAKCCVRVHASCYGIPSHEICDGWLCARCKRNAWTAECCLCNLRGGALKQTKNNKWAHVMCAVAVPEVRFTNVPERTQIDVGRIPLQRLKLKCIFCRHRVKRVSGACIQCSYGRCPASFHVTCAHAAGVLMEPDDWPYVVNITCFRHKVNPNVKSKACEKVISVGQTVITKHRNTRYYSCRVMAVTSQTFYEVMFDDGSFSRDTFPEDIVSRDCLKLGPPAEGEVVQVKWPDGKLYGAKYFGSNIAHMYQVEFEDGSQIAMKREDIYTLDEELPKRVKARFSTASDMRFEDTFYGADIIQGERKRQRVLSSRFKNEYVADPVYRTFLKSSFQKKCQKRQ
Description: (§1) IC50 values were determined as previously described. The following amendments were made to the protocol for carrying out 2-OG competition assays.

KDM5B [3] = biological target: T2, KDM5B (Homo sapiens, UniProt Q9UGL1); experiment: AlphaScreen in vitro demethylase assay; type: biochemical
T2 sequence (Q9UGL1 whole entry): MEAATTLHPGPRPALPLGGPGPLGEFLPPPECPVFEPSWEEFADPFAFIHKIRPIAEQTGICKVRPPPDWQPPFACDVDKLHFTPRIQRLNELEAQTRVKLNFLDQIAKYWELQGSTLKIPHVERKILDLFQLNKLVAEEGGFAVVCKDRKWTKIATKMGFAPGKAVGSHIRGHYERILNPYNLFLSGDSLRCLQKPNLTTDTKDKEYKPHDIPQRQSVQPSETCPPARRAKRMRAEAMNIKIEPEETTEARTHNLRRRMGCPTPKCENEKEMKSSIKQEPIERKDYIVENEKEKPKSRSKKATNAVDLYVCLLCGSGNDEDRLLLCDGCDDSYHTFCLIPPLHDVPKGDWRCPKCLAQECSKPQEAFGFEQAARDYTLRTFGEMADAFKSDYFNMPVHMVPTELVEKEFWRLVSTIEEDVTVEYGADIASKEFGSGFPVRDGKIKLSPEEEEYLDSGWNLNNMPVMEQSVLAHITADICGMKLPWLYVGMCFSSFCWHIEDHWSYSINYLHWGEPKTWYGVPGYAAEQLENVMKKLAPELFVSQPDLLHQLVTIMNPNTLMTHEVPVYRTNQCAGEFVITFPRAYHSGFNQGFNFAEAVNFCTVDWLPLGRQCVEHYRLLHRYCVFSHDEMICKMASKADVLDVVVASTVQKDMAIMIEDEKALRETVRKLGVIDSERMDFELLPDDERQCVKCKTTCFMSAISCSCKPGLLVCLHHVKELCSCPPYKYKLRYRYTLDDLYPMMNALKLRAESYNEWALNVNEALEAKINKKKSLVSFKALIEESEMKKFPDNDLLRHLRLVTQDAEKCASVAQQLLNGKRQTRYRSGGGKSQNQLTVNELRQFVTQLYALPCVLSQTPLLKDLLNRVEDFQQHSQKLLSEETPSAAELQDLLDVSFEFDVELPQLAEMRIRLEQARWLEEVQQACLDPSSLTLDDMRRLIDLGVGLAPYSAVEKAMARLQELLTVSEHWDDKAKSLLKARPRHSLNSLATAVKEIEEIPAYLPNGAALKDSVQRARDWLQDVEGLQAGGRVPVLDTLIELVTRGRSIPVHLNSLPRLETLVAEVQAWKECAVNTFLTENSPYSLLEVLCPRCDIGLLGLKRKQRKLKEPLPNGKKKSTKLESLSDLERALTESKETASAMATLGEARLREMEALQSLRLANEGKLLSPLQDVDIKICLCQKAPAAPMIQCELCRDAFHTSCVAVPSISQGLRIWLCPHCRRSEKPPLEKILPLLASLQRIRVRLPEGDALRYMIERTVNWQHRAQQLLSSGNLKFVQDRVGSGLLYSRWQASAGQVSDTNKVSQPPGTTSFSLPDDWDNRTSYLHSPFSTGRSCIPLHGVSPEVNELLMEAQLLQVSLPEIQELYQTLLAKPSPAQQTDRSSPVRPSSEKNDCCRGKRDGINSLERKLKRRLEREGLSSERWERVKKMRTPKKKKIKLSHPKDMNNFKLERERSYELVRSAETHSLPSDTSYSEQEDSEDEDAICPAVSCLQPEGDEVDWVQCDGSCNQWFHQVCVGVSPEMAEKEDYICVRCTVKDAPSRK
Description: as §1

KDM6B = KDM6B (Homo sapiens, UniProt O15054); experiment: AlphaScreen in vitro demethylase assay; type: biochemical; settings: in vitro KDM assay, Table S3; * likely false positive due to colour quenching; read-out: KDM6B IC50
KDM6B, sequence (O15054 whole entry): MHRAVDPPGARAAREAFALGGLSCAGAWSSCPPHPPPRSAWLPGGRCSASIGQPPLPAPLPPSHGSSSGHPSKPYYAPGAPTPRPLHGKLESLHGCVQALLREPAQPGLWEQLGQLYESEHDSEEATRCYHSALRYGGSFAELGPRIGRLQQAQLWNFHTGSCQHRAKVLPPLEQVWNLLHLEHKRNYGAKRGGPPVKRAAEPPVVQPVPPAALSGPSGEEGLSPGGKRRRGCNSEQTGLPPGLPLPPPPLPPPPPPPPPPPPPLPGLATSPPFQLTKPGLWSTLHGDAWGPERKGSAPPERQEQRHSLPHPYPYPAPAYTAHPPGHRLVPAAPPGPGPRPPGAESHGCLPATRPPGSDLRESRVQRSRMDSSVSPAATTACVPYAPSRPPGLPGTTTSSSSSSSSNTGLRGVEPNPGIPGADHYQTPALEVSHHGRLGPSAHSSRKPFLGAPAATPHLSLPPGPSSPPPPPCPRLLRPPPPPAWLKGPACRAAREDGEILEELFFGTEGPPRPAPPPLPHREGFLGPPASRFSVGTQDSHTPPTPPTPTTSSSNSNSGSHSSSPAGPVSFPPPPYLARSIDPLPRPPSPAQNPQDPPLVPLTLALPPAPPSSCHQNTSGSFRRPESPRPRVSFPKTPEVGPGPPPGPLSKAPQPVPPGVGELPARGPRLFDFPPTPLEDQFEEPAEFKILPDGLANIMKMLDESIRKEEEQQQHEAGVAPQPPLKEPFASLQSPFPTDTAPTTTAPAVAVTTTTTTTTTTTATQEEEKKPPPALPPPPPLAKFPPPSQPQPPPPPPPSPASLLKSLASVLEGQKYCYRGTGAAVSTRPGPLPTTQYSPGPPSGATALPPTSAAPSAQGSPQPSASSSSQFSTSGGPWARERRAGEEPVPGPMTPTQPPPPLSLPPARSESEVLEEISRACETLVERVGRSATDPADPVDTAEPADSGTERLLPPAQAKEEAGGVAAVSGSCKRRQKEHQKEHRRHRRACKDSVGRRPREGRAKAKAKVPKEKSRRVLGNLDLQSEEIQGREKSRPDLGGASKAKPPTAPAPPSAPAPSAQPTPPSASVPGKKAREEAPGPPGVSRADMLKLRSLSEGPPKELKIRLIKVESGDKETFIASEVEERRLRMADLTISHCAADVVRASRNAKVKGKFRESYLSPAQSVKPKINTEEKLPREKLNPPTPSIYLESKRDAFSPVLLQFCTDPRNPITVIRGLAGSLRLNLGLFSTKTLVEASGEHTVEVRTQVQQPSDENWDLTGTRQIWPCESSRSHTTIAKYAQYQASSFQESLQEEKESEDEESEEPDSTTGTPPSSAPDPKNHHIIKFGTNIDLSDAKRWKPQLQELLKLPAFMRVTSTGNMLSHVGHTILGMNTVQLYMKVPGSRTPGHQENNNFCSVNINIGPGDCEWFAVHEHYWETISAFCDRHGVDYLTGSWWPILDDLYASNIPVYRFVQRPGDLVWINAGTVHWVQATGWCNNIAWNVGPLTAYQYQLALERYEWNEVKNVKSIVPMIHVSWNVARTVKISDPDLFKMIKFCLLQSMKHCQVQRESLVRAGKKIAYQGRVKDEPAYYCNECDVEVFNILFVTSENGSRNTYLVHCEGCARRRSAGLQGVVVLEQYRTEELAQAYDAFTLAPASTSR
Description: as §1

KDM3A = biological target: T3, KDM3A (Homo sapiens, UniProt Q9Y4C1); experiment: AlphaScreen in vitro demethylase assay; type: biochemical; settings: IC50 ± SD (number of replicates)
T3 sequence (Q9Y4C1 1-1321): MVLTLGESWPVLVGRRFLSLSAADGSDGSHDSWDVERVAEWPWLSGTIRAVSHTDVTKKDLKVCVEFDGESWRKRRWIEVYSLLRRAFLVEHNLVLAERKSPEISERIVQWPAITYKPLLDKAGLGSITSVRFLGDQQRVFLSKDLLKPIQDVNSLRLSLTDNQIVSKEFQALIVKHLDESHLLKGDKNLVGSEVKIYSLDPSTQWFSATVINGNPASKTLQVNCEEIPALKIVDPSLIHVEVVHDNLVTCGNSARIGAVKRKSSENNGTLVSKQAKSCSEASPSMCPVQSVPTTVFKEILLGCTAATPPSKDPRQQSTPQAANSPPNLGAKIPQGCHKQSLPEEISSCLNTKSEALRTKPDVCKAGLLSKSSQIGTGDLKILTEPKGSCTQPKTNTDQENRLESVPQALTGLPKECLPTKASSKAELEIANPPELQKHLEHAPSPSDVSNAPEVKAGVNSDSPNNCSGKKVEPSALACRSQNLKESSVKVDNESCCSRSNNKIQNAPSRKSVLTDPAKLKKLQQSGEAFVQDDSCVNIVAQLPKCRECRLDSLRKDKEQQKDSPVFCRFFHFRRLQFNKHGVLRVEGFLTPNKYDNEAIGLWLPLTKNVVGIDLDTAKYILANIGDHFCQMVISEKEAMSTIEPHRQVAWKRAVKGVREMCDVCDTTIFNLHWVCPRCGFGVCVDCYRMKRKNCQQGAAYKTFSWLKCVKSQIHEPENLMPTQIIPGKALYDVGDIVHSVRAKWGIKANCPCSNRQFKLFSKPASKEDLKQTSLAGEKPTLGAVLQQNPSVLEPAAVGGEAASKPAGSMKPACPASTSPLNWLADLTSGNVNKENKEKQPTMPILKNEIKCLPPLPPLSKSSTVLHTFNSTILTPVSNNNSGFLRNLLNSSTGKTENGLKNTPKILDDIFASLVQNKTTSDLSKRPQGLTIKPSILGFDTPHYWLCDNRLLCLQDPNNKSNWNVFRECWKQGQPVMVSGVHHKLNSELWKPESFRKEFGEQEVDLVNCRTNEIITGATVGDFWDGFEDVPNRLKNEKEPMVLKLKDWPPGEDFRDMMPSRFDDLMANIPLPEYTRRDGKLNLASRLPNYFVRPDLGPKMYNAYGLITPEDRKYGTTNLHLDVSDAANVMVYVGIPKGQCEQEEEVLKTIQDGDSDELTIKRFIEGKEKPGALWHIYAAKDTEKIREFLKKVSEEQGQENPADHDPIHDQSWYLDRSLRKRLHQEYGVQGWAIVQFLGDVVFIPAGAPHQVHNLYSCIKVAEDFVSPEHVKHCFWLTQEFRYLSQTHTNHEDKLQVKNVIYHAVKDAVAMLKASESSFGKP
Description: as §1

KDM5C = KDM5C (Homo sapiens, UniProt P41229); experiment: AlphaScreen in vitro demethylase assay; type: biochemical; settings: IC50 ± SD (number of replicates)
KDM5C, sequence (P41229 whole entry): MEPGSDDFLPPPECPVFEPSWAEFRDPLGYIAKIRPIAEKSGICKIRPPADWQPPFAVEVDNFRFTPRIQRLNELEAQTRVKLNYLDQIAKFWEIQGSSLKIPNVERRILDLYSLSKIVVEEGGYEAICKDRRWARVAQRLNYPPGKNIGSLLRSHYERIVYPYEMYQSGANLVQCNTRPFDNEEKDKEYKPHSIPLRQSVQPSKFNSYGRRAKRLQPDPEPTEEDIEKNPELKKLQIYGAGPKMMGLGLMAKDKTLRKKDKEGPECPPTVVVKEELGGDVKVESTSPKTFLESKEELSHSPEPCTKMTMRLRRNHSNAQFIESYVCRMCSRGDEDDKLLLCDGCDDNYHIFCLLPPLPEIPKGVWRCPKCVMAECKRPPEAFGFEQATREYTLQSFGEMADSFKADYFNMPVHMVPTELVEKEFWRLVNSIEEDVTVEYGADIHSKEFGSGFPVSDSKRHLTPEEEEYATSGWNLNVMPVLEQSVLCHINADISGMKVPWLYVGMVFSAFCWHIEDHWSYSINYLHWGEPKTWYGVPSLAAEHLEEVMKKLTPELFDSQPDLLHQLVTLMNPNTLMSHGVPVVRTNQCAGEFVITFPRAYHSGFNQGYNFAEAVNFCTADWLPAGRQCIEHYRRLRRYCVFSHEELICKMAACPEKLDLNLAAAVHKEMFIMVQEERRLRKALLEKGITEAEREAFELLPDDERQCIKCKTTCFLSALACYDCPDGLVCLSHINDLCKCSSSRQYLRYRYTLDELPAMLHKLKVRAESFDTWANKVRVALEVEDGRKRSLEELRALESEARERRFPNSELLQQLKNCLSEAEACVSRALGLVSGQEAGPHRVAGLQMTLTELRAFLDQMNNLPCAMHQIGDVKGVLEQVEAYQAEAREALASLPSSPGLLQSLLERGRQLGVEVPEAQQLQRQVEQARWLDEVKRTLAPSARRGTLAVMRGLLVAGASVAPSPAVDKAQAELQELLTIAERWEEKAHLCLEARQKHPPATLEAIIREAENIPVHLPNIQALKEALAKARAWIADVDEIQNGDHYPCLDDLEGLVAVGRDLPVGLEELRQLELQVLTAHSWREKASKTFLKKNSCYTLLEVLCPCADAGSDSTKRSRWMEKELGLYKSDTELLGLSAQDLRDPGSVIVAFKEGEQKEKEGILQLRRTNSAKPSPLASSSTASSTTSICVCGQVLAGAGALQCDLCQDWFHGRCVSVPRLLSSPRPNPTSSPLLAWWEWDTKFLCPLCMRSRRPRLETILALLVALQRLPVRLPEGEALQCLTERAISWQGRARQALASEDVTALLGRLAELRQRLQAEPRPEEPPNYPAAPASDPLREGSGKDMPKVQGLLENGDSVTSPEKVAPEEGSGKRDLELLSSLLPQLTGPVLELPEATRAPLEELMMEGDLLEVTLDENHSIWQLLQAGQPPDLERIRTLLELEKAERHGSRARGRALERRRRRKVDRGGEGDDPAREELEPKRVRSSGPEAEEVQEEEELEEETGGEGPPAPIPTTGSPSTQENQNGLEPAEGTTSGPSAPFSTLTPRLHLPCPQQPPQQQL
Description: as §1

KDM5B [4] = biological target: T2, KDM5B; experiment: High-content immunofluorescence (IF) assay, overexpressed full-length FLAG-tagged KDM in HeLa cells; type: cell-based; design: transiently transfecting the full-length FLAG-tagged demethylase (WT) into cells; expressed in transfected cells; host or cells: HeLa; settings: for EC50: HeLa cells overexpressing WT KDM5B, H3K4me3 mark, 24 h, read-out: KDM5B, in cells, EC50 by IF assay (head: IC50); for Effect on H3K4me3 mark in KDM5B IF assay, in words: HeLa cells transfected with KDM5B
Description: HeLa cells (ATCC) were cultured at 37 °C and 5% CO2 in Minimal Essential Media—Eagle (Sigma-Aldrich, UK) supplemented with 10% heat-inactivated foetal calf serum (FCS) (Gibco, UK), and 1% L-glutaMAX (Gibco, UK) in T75 flasks (Sarstedt, UK) and passaged regularly with TrypLE (Life Technologies, UK) before cells reached confluence. On day 0, 7000 cells per well were plated on a 96-well clear bottom CellCarrier plate (PerkinElmer, UK). The next day the cells were transfected with Lipofectamine 3000 (ThermoFisher Scientific, UK) following the manufacturer’s instructions. Briefly, 0.1 µg of plasmid DNA (encoding for the respective demethylase) and 0.15 µL of Lipofectamine 3000 were diluted in separate tubes containing 5 µL OptiMEM. 0.15 µL of P3000 was added to the tube with the DNA. The two solutions were then mixed gently and allowed to incubate for 5 min at room temperature. Next, the DNA-lipid complex was added to the cells for 4 h at 37 °C and 5% CO2.
Compound dilutions were made in a 96-well PCR plate (Starlab, UK). The culture medium was supplemented with 0.4% DMSO so that the solvent concentration was maintained throughout. Compounds were serially diluted at a 1:2 or 1:3 dilution ratio. Next, the cell culture plate was removed from the incubator and the medium was gently aspirated and replaced with the fresh medium containing diluted compounds.
Then cells were rinsed once with PBS and blocked for 30 min at room temperature using 3% v/v foetal calf serum diluted in PBS.

H3K4me3 mark = experiment: IF assay of histone mark in HeLa cells treated with cytotoxic agents
H3K27me3 mark = experiment: as above
H3K9me2 mark = experiment: as above
H3K36me2 mark = experiment: as above
HeLa cells [5] = test system: HeLa cells
Description: as §2

KDM5B [6] = biological target: T2, KDM5B; design: method as in PMID 26741168; settings: AlphaScreen; in vitro biochemical profiling previously reported; cited from earlier work
[7] = in vitro KDM assay, Table S3, * likely false positive due to colour quenching, read-out: KDM5B IC50
[8] = HeLa cells, 24 h, dose-dependent

SMILES: CCOC(=O)CCNc1cc(N2CCc3ccccc3CC2)nc(-c2cccnc2)n1 [GSK-J5]
necrotic cells (HeLa cells [1]; HeLa cells, 50 µM): about 60%
Toxicity as measured by cell count (number of cells, DAPI staining) (HeLa cells [2]): only minor toxicity at the highest concentrations used

SMILES: CN[C@@H]1C[C@H]2O[C@@](C)([C@@H]1OC)n1c3ccccc3c3c4c(c5c6ccccc6n2c5c31)C(=O)NC4 [Staurosporine, staurosporine]
IC50 (KDM4C): > 100 µM
IC50 (KDM5B [3]; [7]): > 100 µM
IC50 (KDM6B): > 100 µM
Cell death in triple staining (healthy, apoptotic, necrotic), in words (HeLa cells [1]; [8]): predominant apoptotic staining

IC50 (KDM3A): > 10 µM
IC50 (KDM5B [3]; AlphaScreen, IC50 ± SD (number of replicates), read-out: KDM5B IC50, in vitro): 7.01 µM
IC50 (KDM5C): > 10 µM
EC50 (KDM5B [4]): > 100 µM
SMILES: Clc1ccc(N/N=C(/c2ccccc2)c2ccccn2)nc1 [JIB-04 Z]

SMILES: COc1cccc2c1C(=O)c1c(O)c3c(c(O)c1C2=O)C[C@@](O)(C(=O)CO)C[C@@H]3O[C@H]1C[C@H](N)[C@H](O)[C@H](C)O1 [Doxorubicin, doxorubicin]
Cell death in triple staining (healthy, apoptotic, necrotic), in words (HeLa cells [1]): predominant apoptotic staining
Effect on H3K4me3 levels, in words (H3K4me3 mark): no effect on this mark
Effect on H3K27me3 mark, in words (H3K27me3 mark): profound effect
Effect on H3K9me2 levels, in words (H3K9me2 mark): some increase
Effect on H3K36me2 levels, in words (H3K36me2 mark): only marginally affected
Toxicity as measured by cell count (number of cells, DAPI staining) (HeLa cells [2]): induced cell death

IC50 (KDM4C): > 100 µM
IC50 (KDM5B [3]; [7]): > 100 µM
IC50 (KDM6B): > 100 µM
SMILES: CC(=O)O[C@H]1C(=O)[C@@]2(C)[C@H]([C@H](OC(=O)c3ccccc3)[C@]3(O)C[C@H](OC(=O)[C@H](O)[C@@H](NC(=O)c4ccccc4)c4ccccc4)C(C)=C1C3(C)C)[C@]1(OC(C)=O)CO[C@@H]1C[C@@H]2O [Paclitaxel, paclitaxel]
Cell death in triple staining (healthy, apoptotic, necrotic), in words (HeLa cells [1]): predominant apoptotic staining
Effect on H3K4me3 levels, in words (H3K4me3 mark): dose-dependent increase of H3K4me3
Effect on H3K27me3 mark, in words (H3K27me3 mark): profound effect
Effect on H3K9me2 levels, in words (H3K9me2 mark): not affected
Effect on H3K36me2 levels, in words (H3K36me2 mark): only marginally affected
Toxicity as measured by cell count (number of cells, DAPI staining) (HeLa cells [2]): induced cell death

Effect on H3K4me3 mark in KDM5B IF assay, in words (KDM5B [4]): increase of the H3K4me3 mark
SMILES: CCOC(=O)CCNc1cc(N2CCc3ccccc3CC2)nc(-c2ccccn2)n1 [GSK-J4]
Toxicity as measured by cell count (number of cells, DAPI staining) (HeLa cells [5]): only minor toxicity at the highest concentrations used

SMILES: O=C(O)c1ccc(O)c2ncccc12 [IOX1]
Cell death in triple staining (healthy, apoptotic, necrotic), in words (HeLa cells [1]; [8]): little to no cell toxicity
IC50 (KDM5B [6]): 20.6 ± 9 µM
Toxicity as measured by cell count (number of cells, DAPI staining) (HeLa cells [2]): only observed cell toxicity at high concentrations
EC50 (KDM5B [4]): 62 µM
Effect on H3K4me3 mark in KDM5B IF assay, in words (KDM5B [4]): dose-dependent increase of H3K4me3
